In the NIST ThermoML archive (doi:10.1021/je5010214):

Details: Liquid, Vibrating tube method

CCCCO [butan-1-ol]
Details	mass density [kg/m3]
283.15 K, 267.6 kPa	817.937
283.15 K, 550.8 kPa	818.14
283.15 K, 878.6 kPa	818.388
283.15 K, 991.3 kPa	818.415
283.15 K, 2020.2 kPa	819.134
283.15 K, 2914.8 kPa	819.722
283.15 K, 4946.5 kPa	821.145
283.15 K, 7034.8 kPa	822.538
283.15 K, 9021.6 kPa	823.807
283.15 K, 9991.9 kPa	824.485
283.15 K, 11959 kPa	825.705
283.15 K, 15011 kPa	827.609
283.15 K, 18047 kPa	829.455
283.15 K, 20045 kPa	830.642
283.15 K, 22057 kPa	831.928
283.15 K, 25044 kPa	833.615
283.15 K, 28046 kPa	835.368
283.15 K, 30052 kPa	836.501
283.15 K, 32970 kPa	838.092
283.15 K, 32971 kPa	838.117
283.15 K, 34017 kPa	838.557
283.15 K, 34960 kPa	839.141
283.15 K, 37943 kPa	840.737
283.15 K, 40004 kPa	841.811
283.15 K, 42058 kPa	842.896
283.15 K, 44940 kPa	844.325
283.15 K, 48022 kPa	845.954
283.15 K, 49996 kPa	846.902
283.15 K, 51982 kPa	847.942
283.15 K, 54965 kPa	849.358
283.15 K, 57949 kPa	850.826
283.15 K, 59996 kPa	851.847
283.15 K, 62025 kPa	852.74
283.15 K, 64998 kPa	854.215
283.16 K, 101.2 kPa	817.825
283.16 K, 65971 kPa	854.69
288.15 K, 78.5 kPa	813.612
288.15 K, 391.3 kPa	813.84
288.15 K, 554.4 kPa	813.953
288.15 K, 882.7 kPa	814.204
288.15 K, 989.1 kPa	814.282
288.15 K, 2057.5 kPa	815.033
288.15 K, 2917.8 kPa	815.651
288.15 K, 5041.4 kPa	817.16
288.15 K, 7088.8 kPa	818.541
288.15 K, 9018.6 kPa	819.847
288.15 K, 10040 kPa	820.583
288.15 K, 12072 kPa	821.91
288.15 K, 15001 kPa	823.877
288.15 K, 17968 kPa	825.72
288.15 K, 20068 kPa	826.976
288.15 K, 20693 kPa	827.38
288.15 K, 22020 kPa	828.211
288.15 K, 25002 kPa	829.984
288.15 K, 28026 kPa	831.832
288.15 K, 30035 kPa	832.896
288.15 K, 32084 kPa	834.074
288.15 K, 33050 kPa	834.714
288.15 K, 34036 kPa	835.152
288.15 K, 35077 kPa	835.674
288.15 K, 37993 kPa	837.311
288.15 K, 40041 kPa	838.449
288.15 K, 42023 kPa	839.459
288.15 K, 44979 kPa	841.064
288.15 K, 48045 kPa	842.655
288.15 K, 50068 kPa	843.734
288.15 K, 52032 kPa	844.696
288.15 K, 55077 kPa	846.251
288.15 K, 58004 kPa	847.666
288.15 K, 59988 kPa	848.618
288.15 K, 61974 kPa	849.542
288.15 K, 64942 kPa	850.93
288.15 K, 66025 kPa	851.488
293.15 K, 91.1 kPa	810.528
293.15 K, 825.1 kPa	811.053
293.15 K, 1971.7 kPa	811.916
293.15 K, 3060.6 kPa	812.72
293.15 K, 5011 kPa	814.074
293.15 K, 9042.1 kPa	816.992
293.15 K, 10036 kPa	817.626
293.15 K, 11947 kPa	818.963
293.15 K, 14941 kPa	820.924
293.15 K, 21987 kPa	825.417
293.15 K, 27986 kPa	829.06
293.15 K, 28066 kPa	829.163
293.15 K, 33151 kPa	832.036
293.15 K, 34099 kPa	832.526
293.15 K, 35000 kPa	833.078
293.15 K, 40081 kPa	835.959
293.15 K, 42099 kPa	837.008
293.15 K, 45068 kPa	838.658
293.15 K, 54966 kPa	843.81
293.15 K, 58072 kPa	845.282
293.15 K, 66045 kPa	849.224
293.16 K, 305.2 kPa	810.686
293.16 K, 476.4 kPa	810.81
293.16 K, 1045.2 kPa	811.221
293.16 K, 7096.8 kPa	815.616
293.16 K, 17889 kPa	822.832
293.16 K, 19992 kPa	824.147
293.16 K, 24983 kPa	827.251
293.16 K, 29976 kPa	830.11
293.16 K, 32232 kPa	831.521
293.16 K, 38027 kPa	834.783
293.16 K, 48022 kPa	840.192
293.16 K, 50085 kPa	841.31
293.16 K, 52032 kPa	842.308
293.16 K, 60018 kPa	846.257
293.16 K, 61962 kPa	847.209
293.16 K, 64991 kPa	848.649
298.15 K, 98.1 kPa	806.282
298.15 K, 305.4 kPa	806.45
298.15 K, 854.5 kPa	806.874
298.15 K, 1980.9 kPa	807.747
298.15 K, 3167.8 kPa	808.637
298.15 K, 5067.6 kPa	810.04
298.15 K, 7065.3 kPa	811.55
298.15 K, 10107 kPa	813.67
298.15 K, 20128 kPa	820.445
298.15 K, 22004 kPa	821.641
298.15 K, 25081 kPa	823.55
298.15 K, 33113 kPa	828.365
298.15 K, 33924 kPa	828.845
298.15 K, 38097 kPa	831.213
298.15 K, 40161 kPa	832.357
298.15 K, 42029 kPa	833.462
298.15 K, 42359 kPa	833.614
298.15 K, 45021 kPa	835.052
298.15 K, 48107 kPa	836.745
298.15 K, 50068 kPa	837.797
298.15 K, 55016 kPa	840.375
298.15 K, 57931 kPa	841.819
298.15 K, 59914 kPa	842.826
298.15 K, 62036 kPa	843.934
298.15 K, 65018 kPa	845.412
298.16 K, 493.7 kPa	806.599
298.16 K, 1012.6 kPa	806.992
298.16 K, 9120.9 kPa	813.012
298.16 K, 11970 kPa	814.957
298.16 K, 15220 kPa	817.234
298.16 K, 17984 kPa	819.076
298.16 K, 28040 kPa	825.42
298.16 K, 30089 kPa	826.686
298.16 K, 32030 kPa	827.814
298.16 K, 35217 kPa	829.575
298.16 K, 52020 kPa	838.835
298.16 K, 66118 kPa	845.919
303.15 K, 304.1 kPa	802.278
303.15 K, 498.9 kPa	802.435
303.15 K, 900.6 kPa	802.733
303.15 K, 979.1 kPa	802.787
303.15 K, 1977.6 kPa	803.554
303.15 K, 4930.4 kPa	805.792
303.15 K, 11975 kPa	810.901
303.15 K, 15044 kPa	812.956
303.15 K, 19974 kPa	816.207
